Laboratory results taken from patent publication US20090220996A1, “In vitro Assay Methods for Classifying Embryotoxicity of Compounds” (RELIANCE LIFE SCIENCES PVT LTD., priority 2007, published 2009).

Tests used:
hES, hEBs and HFF = assay: CyQUANT/survival cytotoxicity, cell type not given; format: cell-based, human; conditions: cell type not stated; for cell survival: CyQUANT
Method: Cytotoxicity analysis of three cell types (hES, hEBs and HFF) was evaluated using the CyQUANT assay following compound treatment. All data were the mean of three independent experiments for each cell type. Data is represented as the mean±SE.

[1] = test system: lineage marker gene expression in hEBs; assay: Gene expression profile of day 15 hEBs (RT-PCR, densitometry) and ID50; format: cell-based, human; conditions: for lineage markers down-regulated / affected: summary statement, hEBs
Method: On the 15th day, differentiated cells that are adherent are washed with 2 ml DPBS and trypsinized (0.05%) from 24 well plates and collected in a tube. The tube is centrifuged at 2000 rpm for 10 minutes to pellet the cells. The total RNA is isolated using TRIzol (Invitrogen Corporation) following the manufacturer's instructions. The RNA is quantified by absorbance at 260 nm, and 1-2 μg of RNA from control and drug treated cells are converted to cDNA using Superscript cDNA synthesis kit (Invitrogen Corporation) following the manufacturer's instructions. cDNA was used to study the expression of genes specific for ectoderm, mesoderm, and endoderm, by an appropriate method, such as RT-PCR, qPCR, or microarray. Markers indicative of each lineage are used.
The changes in gene expression in the presence or absence of the drug are compared. Changes in a mesodermal marker representative of cardiogenesis is used to calculate ID50 values of the tested compounds, and densitometry of the band intensities from RT-PCR, or CT values from qPCR, are used to calculate the ID50 values.
Various compounds were tested for their effect on the gene expression profiles of homeobox transcription factor Nanog (“NANOG”; GenBank Accession Number AB093576), neurofilament, heavy polypeptide 200 KDa (“NEFH” or “NFH”; GenBank Accession Number X15307), keratin-15 (“KRT15”; GenBank Accession Number X07696), actin, alpha, cardiac muscle (“ACTC1”; GenBank Accession Number NM_005159), msh homeobox 1 (“MSX1”; GenBank Accession Number BC067353), CD34 molecule (“CD34”; GenBank Accession Number BC039146), alpha fetoprotein (“AFP”; GenBank Accession Number J00077), serum albumin (“ALB”; GenBank Accession Number M12523), bone morphogenetic protein 4 (“BMP4”; GenBank Accession Number NM_130850), and bone morphogenetic protein 5 (“BMP5”; GenBank Accession Number M60314) in hEBs. Glyceraldehyde-3-phosphate dehydrogenase (“GAPDH”; GenBank Accession Number J04038) was used as a control.
RNA was extracted from different drug treated groups using the trizol method. One microgram of RNA was converted to cDNA using superscript reverse transcriptase. PCR was performed with the initial denaturation cycle at 94° C. for 5 min, followed by 35 cycles of 94° C. for 30 seconds, annealing temperature varying (Table 1) for 30 seconds, 72° C. for 1 minute, followed final extension at 72° C. for 5 min. Electrophoresis was performed on 1.5% agarose gels. Paired comparisons were conducted using a paired t test, and all data are presented as mean values±S.E. Differences were considered significant at a 0.05 level of confidence.
For calculating IC50-hES and ID50-hES cells, one petri dish was used per concentration of the test chemical, as well as for the untreated control (assay medium) and the solvent control. The lid was turned carefully to its regular position and put on top of a petri dish filled with 5 ml PBS. […] The changes in gene expression in the presence or absence of the drug were compared. Changes in mesodermal marker representative of cardiogenesis was used to calculate ID50 values of the tested compounds, and the densitometry of the band intensities performed in case of RT-PCR, or CT values in case of qPCR, were used to calculate the ID50 values.

[2] = 0.1 μg/ml, day 15 hEBs, FIG. 5B

Structure (SMILES): COc1ccc2c(c1)c(CC(=O)O)c(C)n2C(=O)c1ccc(Cl)cc1 [Indomethacin, indomethacin]
- cell survival (hES, hEBs and HFF; 100 μg/ml, FIG. 4D): 20-30%

Structure (SMILES): O=c1[nH]cc(F)c(=O)[nH]1 [5-Fluorouracil, 5-fluorouracil]
- down-regulation of ALB gene expression ([1]; 0.001 μg/ml, day 15 hEBs, FIG. 5B): 40%
- decrease in NFH levels ([1]; 0.01 μg/ml, day 15 hEBs, FIG. 5B): 60%
- down-regulation of AFP gene expression [1, 2]: 80%
- down-regulation of MSX1 expression [1, 2]: 15%
- down-regulation of NANOG expression [1, 2]: 25%
- gene expression levels of ACTC1, KRT, CD34, BMP4, and BMP5 ([1]; 0.0001-0.1 μg/ml, day 15 hEBs, FIG. 5B): no change
- lineage markers down-regulated / affected [1]: all the three lineage markers are effected

Structure (SMILES): Cn1c(=O)c2c(ncn2C)n(C)c1=O [Caffeine, caffeine]
- cell survival percentage compared to controls (hES, hEBs and HFF; 50 μg/ml, FIG. 3B): significant decrease
- cell survival (hES, hEBs and HFF; 500 μg/ml, FIG. 4C): 20%
- decrease of AFP expression ([1]; 50 μg/ml, day 15 hEBs, FIG. 6B): 80%
- decrease of NFH expression ([1]; 50 μg/ml, day 15 hEBs, FIG. 6B): 80%
- decrease of keratin expression ([1]; 50 μg/ml, day 15 hEBs, FIG. 6B): 85%
- decrease of ACTC1 expression ([1]; 500 μg/ml, day 15 hEBs, FIG. 6B): 40%
- expression levels of NANOG, CD34, BMP4, MSX1, and BMP5 ([1]; day 15 hEBs, FIG. 6B): no significant change

Structure (SMILES): CC1(C)S[C@@H]2[C@H](NC(=O)Cc3ccccc3)C(=O)N2[C@H]1C(=O)O [Penicillin G, penicillin G]
- ALB levels ([1]; 10 μg/ml, day 15 hEBs, FIG. 7): decreased
- AFP levels decreased to ([1]; 100 μg/ml, day 15 hEBs, FIG. 7): 40%
- markers of ectoderm, mesoderm, and endoderm other than AFP and ALB ([1]; day 15 hEBs, FIG. 7A): no significant change
- expression of AFP and ALB ([1]; highest dose (5000 μg/ml), day 15 hEBs, FIG. 7B): complete loss of expression
- lineage markers down-regulated / affected [1]: only endodermal markers are down-regulated
